Laboratory results as given in PubChem BioAssay AID1996.
In brackets after ≈: the same amount, converted by molar mass.

Settings: buffer; pH 7.4; 200.0 µM

SMILES	solubility kinetic [µg/mL]
O=C1CCCN=C(Nc2ccc(F)c(Cl)c2)S1	3.1 (≈ 11.4 µM)
C/C(=C\c1ccccc1)C(=O)Nc1ccc(Cl)cn1	7.2 (≈ 26.4 µM)
CN(C)C(=S)NC(=O)C12CC3CC(C)(CC(C)(C3)C1)C2	27.4 (≈ 93.1 µM)
CCN(c1ccccc1)S(=O)(=O)c1ccc(Cl)c(C(=O)O)c1	> 51
Cn1c(=O)c2c(ncn2CCC(=O)N/N=C/c2cccnc2)n(C)c1=O	> 53.3
CCOC(=O)c1cc(-c2csc(COc3ccccc3Cl)n2)on1	< 0.4
Cc1cccc(C(=O)OCC(=O)N2CCCCCC2)c1O	36 (≈ 124 µM)
Cc1c(C(=O)NCCSCc2ccccc2)cccc1[N+](=O)[O-]	46.6 (≈ 141 µM)
Cc1ccsc1-c1nc(CN2CCN(C)C(=O)[C@@H]2C)c(C)o1	40 (≈ 125 µM)
CC1CCCCC1NC(=O)c1ccc2c(c1)OCCO2 (stereo not given)	> 41.3
CSc1ccccc1C(=O)OCC(=O)Nc1ccc(N2CCOCC2)cc1	9.3 (≈ 24.1 µM)
CS(=O)(=O)N1CCC(C(=O)Nc2ccc(C(N)=O)cc2)CC1	34.7 (≈ 107 µM)
Cc1ccc(Nc2nc(N)c([N+](=O)[O-])c(NCCO)n2)cc1C	2.1 (≈ 6.6 µM)
O=C(CCCc1ccccc1)NCCc1ccc(F)cc1	39.6 (≈ 139 µM)
O=C(COC(=O)c1ccncc1)c1ccccc1	> 36.2
Cc1ccccc1OC(C)C(=O)NCCC1=CCCCC1 (stereo not given)	19.6 (≈ 68.2 µM)
Cc1cccc(CCNCc2cc3cccc(C)c3[nH]c2=O)c1	45.9 (≈ 150 µM)
COCC(=O)Nc1cc(Cl)ccc1C	> 32
O=C1CN(C(=O)COC(=O)CCC(=O)c2ccc(F)cc2)c2ccccc2N1	31.6 (≈ 82.2 µM)
CCOc1cc(S(=O)(=O)NCC2CCCO2)ccc1F (stereo not given)	> 45.5

SMILES	solubility kinetic [µg/mL]
C/C(=N/NC(=O)c1ccncc1)c1ccc2c(c1)OCO2	> 42.5
C=CCNC(=O)COc1ccc(S(=O)(=O)N2CCCC2)cc1	> 48.7
OC(CNCc1ccccc1)c1ccccc1 (stereo not given)	> 34.1
C/C(=N\O)c1ccn(S(=O)(=O)c2ccc(Cl)cc2)c1	8.4 (≈ 28.1 µM)
Nc1nc(-c2c(Cl)cccc2Cl)no1	32.7 (≈ 142 µM)
CCN(CC)P(=O)(c1nccn1C)N(CC)CC	40.7 (≈ 149 µM)
Cc1nc(N2CCN(c3ccc(Cl)cc3)CC2)[nH]c(=O)c1C	1.6 (≈ 5.02 µM)
COc1ccccc1CNC(=O)CCNC(=O)c1ccco1	> 45.3
CC(=O)c1c(C)[nH]c(C(=O)Nc2ccc(Cl)cc2)c1C	2.2 (≈ 7.57 µM)
CCNC(=O)CC1C(=O)N(CC)C(=S)N1NC(=O)c1cccnc1 (stereo not given)	> 52.4
O=C(NC(=S)N1CCN(c2ccccc2)CC1)c1ccccc1	6.4 (≈ 19.7 µM)
S=C(Nc1ccccc1)NC1CCN(Cc2ccccc2)CC1	> 48.8
Cc1cnc(NC(=O)c2ccccn2)s1	29.3 (≈ 134 µM)
COc1cc(C)nc(-c2csc(C)n2)n1	28.6 (≈ 129 µM)
Cc1cc(N2CCN(C(=O)c3ccco3)CC2)c2ccccc2n1	44.7 (≈ 139 µM)
CC1CC(C)CN(C(=O)c2cccc(S(=O)(=O)NCc3ccccc3)c2)C1 (stereo not given)	> 58
CCCCC(=O)Nc1cc(C)c(NC(=O)c2ccco2)cn1	> 45.2
Cc1nn(CC(=O)c2ccc(Cl)s2)c(C)c1[N+](=O)[O-]	> 45
O=C(COc1ccccc1)NCC1COc2ccccc2O1 (stereo not given)	44.8 (≈ 150 µM)
Cc1nc(S/C(C(=O)O)=C2/C(=O)Nc3ccccc32)n[nH]1	> 45.3

SMILES	solubility kinetic [µg/mL]
CC(C)(C)NCC(O)COc1cccc2[nH]c(=O)[nH]c12.Cl (stereo not given)	> 47.4
COc1ccc(-c2cnc(N)nc2-c2ccc(OC)cc2)cc1	2.8 (≈ 9.11 µM)
CC1(C(=O)Nc2ccccc2)Cc2ccccc2C(=O)O1 (stereo not given)	> 42.2
O=C1c2ccccc2NC(c2ccccc2O)N1O (stereo not given)	> 38.4
CC1CCCCC1NC(=O)COC(=O)COc1ccccc1F (stereo not given)	35.3 (≈ 109 µM)
CC(C)Cn1c(N)c(C=O)c(=O)[nH]c1=O	> 31.7
O=c1[nH]c(O)c(C=NC2CCCCC2)c(=O)[nH]1	> 35.6
CCC(C)c1ccc(NC(=O)COC(=O)CCNS(=O)(=O)c2cccs2)cc1 (stereo not given)	21.2 (≈ 49.9 µM)
C=CCNC(=S)Nc1sc2c(c1C(N)=O)CCCC2	18.2 (≈ 61.6 µM)
Cc1cccnc1Nc1nc(-c2ccccc2)cs1	7.6 (≈ 28.4 µM)
CC(O)Cn1cnc2c1c(=O)n(C)c(=O)n2C (stereo not given)	> 35.7
COc1ccccc1NS(=O)(=O)c1cc(NC(=O)COc2ccccc2)ccc1N1CCOCC1	8.1 (≈ 16.3 µM)
Cc1cccc(C2=NOC(=O)/C2=C\c2ccccc2F)c1	6.5 (≈ 23.1 µM)
COc1ccc(/C=C2\SC(N3CCCCC3)=NC2=O)cc1OC	8.2 (≈ 24.7 µM)
Cc1ccc(Nc2nc(N)nc(CCl)n2)cc1	> 37.5
O=C(COc1ncnc2sccc12)Nc1ccc(F)cc1F	> 48.2
CC1CCCN(C(=O)NC(=O)c2ccc(Cl)cc2)C1 (stereo not given)	41.8 (≈ 149 µM)
COc1ccc(S(=O)(=O)N2CCCC2c2cccs2)cc1 (stereo not given)	27.4 (≈ 84.7 µM)
O=C1Nc2ccccc2/C1=C/c1nc2ccccc2c(=O)n1-c1ccc(O)cc1	1.9 (≈ 4.98 µM)
CCN(Cc1cc2cc(C)ccc2[nH]c1=O)C(=O)c1cccc([N+](=O)[O-])c1	11.5 (≈ 31.5 µM)
